Data as given in US8895561B2, “Compounds and methods for treating candidiasis and aspergillus infections” (Cellceutix Corporation, priority 2012, dated 2014).
Converted amounts (≈) assume the structure as drawn.

tested on: C. albicans GDH2346 hyphal biofilm; test: Candida IC50 in the hyphal state / hyphal biofilm, MTS viability assay; format: cell-based; details: Candida albicans, 48 h; 2-day hyphal biofilm cultures; read-out: Anti-C. albicans GDH2346 Hyphal (IC50)
Experimental: Candida IC50s were determined by OD600 and fluorescence from vegetative cells and by MTS viability assay in the hyphal state. MICs were determined using a broth microdilution assay under standard CLSI conditions Bacteria strains: E. coli 25922 (EC), S. aureus 27660 (SA), E. faecalis 29212 (EF), P. aeruginosa 10145 (PA), and K. pneumoniae 13883 (KP). Cytotoxicity (EC50) was determined against mouse 3T3 fibroblasts, human transformed liver HepG2 cells, and human oral keratinocyte cell line, OKF6/TERT using an MTS viability assay. Candida IC50s<10 μg/mL, MICs<5 μg/mL and cytotoxicity EC50s>100 μM are indicated in green. MICs>5 μg/mL and cytotoxicity EC50s<100 μM are indicated in red. To form the biofilm, yeast were grown in RPMI/MOPS, 0.4% sucrose pH7.4 media supplemented with 10% FBS in tissue culture-treated flat bottom 96 well plates for 48 hours. The filamentous yeast cultures were then vigorously washed to remove any non-filamentous, non-attached yeast. The remaining attached filamentous biofilm yeast were incubated in saline containing serially diluted compounds for 24 hours. The cultures were aspirated to remove compound, rinsed and overlayed with RPMI/MOPS, 0.4% sucrose pH7.4 media. Biofilm viability was measured using a cell proliferation assay (CellTiter96 Aqueous Kit from Promega) and IC50s were determined using Prism GraphPad software (nonlinear fit, Table 3).

Compound | IC50 [µg/mL]
N=C(N)N1CCN(c2ccc(-c3cc(-c4ccc(N5CCN(C(=N)N)CC5)cc4)ncn3)cc2)CC1 [Compound 136] | 0.71 (≈ 1.47 µM)

same assay, conditions: Candida albicans; hyphal state; read-out: IC50 Candida, Hyphal

Compound | IC50 [µg/mL]
N=C(N)N1CCN(c2ccc(-c3cc(-c4ccc(N5CCN(C(=N)N)CC5)cc4)ncn3)cc2)CC1 [Compound 136] | 0.71 (≈ 1.47 µM)
NCCCOc1cc(-c2cn(-c3cc(OCCCN)cc(OCCCN)c3)nn2)cc(-c2cn(-c3cc(OCCCN)cc(OCCCN)c3)nn2)c1 [Compound 137] | 2.29 (≈ 3.14 µM)

tested on: E. coli 25922; test: Bacterial MIC, broth microdilution, CLSI; format: cell-based; details: Escherichia coli; E. coli 25922
Experimental: (§1) Candida IC50s were determined by OD600 and fluorescence from vegetative cells and by MTS viability assay in the hyphal state. MICs were determined using a broth microdilution assay under standard CLSI conditions Bacteria strains: E. coli 25922 (EC), S. aureus 27660 (SA), E. faecalis 29212 (EF), P. aeruginosa 10145 (PA), and K. pneumoniae 13883 (KP). Cytotoxicity (EC50) was determined against mouse 3T3 fibroblasts, human transformed liver HepG2 cells, and human oral keratinocyte cell line, OKF6/TERT using an MTS viability assay. Candida IC50s<10 μg/mL, MICs<5 μg/mL and cytotoxicity EC50s>100 μM are indicated in green. MICs>5 μg/mL and cytotoxicity EC50s<100 μM are indicated in red. Candida IC50s (CA) were determined by OD600 and fluorescence from vegetative cells. MICs were determined using a broth microdilution assay under standard CLSI conditions Bacteria strains: E. coli 25922 (EC), S. aureus 27660 (SA), E. faecalis 29212 (EF), P. aeruginosa 10145 (PA), and K. pneumoniae 13883 (KP). Cytotoxicity (EC50) was determined against mouse 3T3 fibroblasts and human transformed liver HepG2 cells using an MTS viability assay.

Compound | EC50 [µg/mL]
N=C(N)N1CCN(c2ccc(-c3cc(-c4ccc(N5CCN(C(=N)N)CC5)cc4)ncn3)cc2)CC1 [Compound 136] | > 50
NCCCOc1cc(-c2cn(-c3cc(OCCCN)cc(OCCCN)c3)nn2)cc(-c2cn(-c3cc(OCCCN)cc(OCCCN)c3)nn2)c1 [Compound 137] | 50 (≈ 68.5 µM)

tested on: E. faecalis 29212; test: Bacterial MIC, broth microdilution, CLSI; format: cell-based; details: Enterococcus faecalis; E. faecalis 29212
Experimental: as §1

Compound | EC50 [µg/mL]
N=C(N)N1CCN(c2ccc(-c3cc(-c4ccc(N5CCN(C(=N)N)CC5)cc4)ncn3)cc2)CC1 [Compound 136] | 0.098 (≈ 0.202 µM)
NCCCOc1cc(-c2cn(-c3cc(OCCCN)cc(OCCCN)c3)nn2)cc(-c2cn(-c3cc(OCCCN)cc(OCCCN)c3)nn2)c1 [Compound 137] | 25 (≈ 34.3 µM)

tested on: K. pneumoniae 13883; test: Bacterial MIC, broth microdilution, CLSI; format: cell-based; details: Klebsiella pneumoniae
Experimental: as §1

Compound | EC50 [µg/mL]
N=C(N)N1CCN(c2ccc(-c3cc(-c4ccc(N5CCN(C(=N)N)CC5)cc4)ncn3)cc2)CC1 [Compound 136] | 50 (≈ 103 µM)
NCCCOc1cc(-c2cn(-c3cc(OCCCN)cc(OCCCN)c3)nn2)cc(-c2cn(-c3cc(OCCCN)cc(OCCCN)c3)nn2)c1 [Compound 137] | > 50

tested on: P. aeruginosa 10145; test: Bacterial MIC, broth microdilution, CLSI; format: cell-based; details: Pseudomonas aeruginosa; P. aeruginosa 10145
Experimental: as §1

Compound | EC50 [µg/mL]
N=C(N)N1CCN(c2ccc(-c3cc(-c4ccc(N5CCN(C(=N)N)CC5)cc4)ncn3)cc2)CC1 [Compound 136] | 50 (≈ 103 µM)
NCCCOc1cc(-c2cn(-c3cc(OCCCN)cc(OCCCN)c3)nn2)cc(-c2cn(-c3cc(OCCCN)cc(OCCCN)c3)nn2)c1 [Compound 137] | 50 (≈ 68.5 µM)

tested on: S. aureus 27660; test: Bacterial MIC, broth microdilution, CLSI; format: cell-based; details: Staphylococcus aureus; S. aureus 27660
Experimental: as §1

Compound | EC50 [µg/mL]
N=C(N)N1CCN(c2ccc(-c3cc(-c4ccc(N5CCN(C(=N)N)CC5)cc4)ncn3)cc2)CC1 [Compound 136] | 0.39 (≈ 0.805 µM)
NCCCOc1cc(-c2cn(-c3cc(OCCCN)cc(OCCCN)c3)nn2)cc(-c2cn(-c3cc(OCCCN)cc(OCCCN)c3)nn2)c1 [Compound 137] | 25 (≈ 34.3 µM)

tested on: human oral keratinocyte cell line, OKF6/TERT; test: Cytotoxicity, MTS viability assay; format: cell-based; details: not given
Experimental: Candida IC50s were determined by OD600 and fluorescence from vegetative cells and by MTS viability assay in the hyphal state. MICs were determined using a broth microdilution assay under standard CLSI conditions Bacteria strains: E. coli 25922 (EC), S. aureus 27660 (SA), E. faecalis 29212 (EF), P. aeruginosa 10145 (PA), and K. pneumoniae 13883 (KP). Cytotoxicity (EC50) was determined against mouse 3T3 fibroblasts, human transformed liver HepG2 cells, and human oral keratinocyte cell line, OKF6/TERT using an MTS viability assay. Candida IC50s<10 μg/mL, MICs<5 μg/mL and cytotoxicity EC50s>100 μM are indicated in green. MICs>5 μg/mL and cytotoxicity EC50s<100 μM are indicated in red.
(§2) CLSI conditions Bacteria strains: clinical isolates; yeast strains: C. dubliniensis (NCPF3949), C. glabrata (ATCC 90030), C. krusei (ATCC 6258), C. parapsilosis (ATCC 22019), and C. tropicalis (ATCC 750). Cytotoxicity (EC50) was determined against mouse 3T3 fibroblasts, human transformed liver HepG2 cells, and human oral keratinocyte cell line, OKF6/TERT using an MTS viability assay.

Compound | IC50 [µM]
N=C(N)N1CCN(c2ccc(-c3cc(-c4ccc(N5CCN(C(=N)N)CC5)cc4)ncn3)cc2)CC1 [Compound 136] | 466
NCCCOc1cc(-c2cn(-c3cc(OCCCN)cc(OCCCN)c3)nn2)cc(-c2cn(-c3cc(OCCCN)cc(OCCCN)c3)nn2)c1 [Compound 137] | 42

tested on: C. albicans GDH2346; test: Candida MIC, CLSI M27-A3; format: cell-based; details: Candida albicans, GDH2346; 50% human serum; read-out: MIC C. albicans GDH2346 + 50% HS
Experimental: (§3) Candida MIC assays were determined in accordance with CLSI guidelines M27-A3 using a clinically isolated C. albicans strain, GDH2346.50% human serum was added to determine activity in the presence of serum.

Compound | MIC [µg/mL]
N=C(N)N1CCN(c2ccc(-c3cc(-c4ccc(N5CCN(C(=N)N)CC5)cc4)ncn3)cc2)CC1 [Compound 136] | 2

same assay, conditions: Candida albicans, GDH2346; Table 5; read-out: MIC C. albicans

Compound | MIC [µg/mL]
N=C(N)N1CCN(c2ccc(-c3cc(-c4ccc(N5CCN(C(=N)N)CC5)cc4)ncn3)cc2)CC1 [Compound 136] | 4 (≈ 8.25 µM)
NCCCOc1cc(-c2cn(-c3cc(OCCCN)cc(OCCCN)c3)nn2)cc(-c2cn(-c3cc(OCCCN)cc(OCCCN)c3)nn2)c1 [Compound 137] | 8 (≈ 11 µM)

same assay, conditions: Candida albicans, GDH2346; without serum; read-out: MIC C. albicans GDH2346

Compound | MIC [µg/mL]
N=C(N)N1CCN(c2ccc(-c3cc(-c4ccc(N5CCN(C(=N)N)CC5)cc4)ncn3)cc2)CC1 [Compound 136] | 4 (≈ 8.25 µM)

tested on: C. dubliniensis (NCPF3949); test: Yeast MIC; format: cell-based; details: Candida dubliniensis, NCPF3949; 50% human serum; read-out: MIC C. dubliniensis + 50% HS
Experimental: as §3, §2

Compound | MIC [µg/mL]
N=C(N)N1CCN(c2ccc(-c3cc(-c4ccc(N5CCN(C(=N)N)CC5)cc4)ncn3)cc2)CC1 [Compound 136] | 2

same assay, conditions: Candida dubliniensis, NCPF3949; Table 5; read-out: MIC C. dubliniensis

Compound | MIC [µg/mL]
NCCCOc1cc(-c2cn(-c3cc(OCCCN)cc(OCCCN)c3)nn2)cc(-c2cn(-c3cc(OCCCN)cc(OCCCN)c3)nn2)c1 [Compound 137] | 8 to 16 (≈ 11 to 21.9 µM)

same assay, conditions: Candida dubliniensis, NCPF3949; without serum; read-out: MIC C. dubliniensis

Compound | MIC [µg/mL]
N=C(N)N1CCN(c2ccc(-c3cc(-c4ccc(N5CCN(C(=N)N)CC5)cc4)ncn3)cc2)CC1 [Compound 136] | 8 (≈ 16.5 µM)

same assay, conditions: Table 5

Compound | MIC C. dubliniensis [µg/mL]
N=C(N)N1CCN(c2ccc(-c3cc(-c4ccc(N5CCN(C(=N)N)CC5)cc4)ncn3)cc2)CC1 [Compound 136] | 8 (≈ 16.5 µM)

tested on: C. glabrata (ATCC 90030); test: Yeast MIC; format: cell-based; details: Nakaseomyces glabratus, ATCC90030; 50% human serum; read-out: MIC C. glabrata + 50% HS
Experimental: as §3, §2

Compound | MIC [µg/mL]
N=C(N)N1CCN(c2ccc(-c3cc(-c4ccc(N5CCN(C(=N)N)CC5)cc4)ncn3)cc2)CC1 [Compound 136] | 1

same assay, conditions: Nakaseomyces glabratus, ATCC90030; Table 5; read-out: MIC C. glabrata

Compound | MIC [µg/mL]
NCCCOc1cc(-c2cn(-c3cc(OCCCN)cc(OCCCN)c3)nn2)cc(-c2cn(-c3cc(OCCCN)cc(OCCCN)c3)nn2)c1 [Compound 137] | 8 (≈ 11 µM)

same assay, conditions: Nakaseomyces glabratus, ATCC90030; without serum; read-out: MIC C. glabrata

Compound | MIC [µg/mL]
N=C(N)N1CCN(c2ccc(-c3cc(-c4ccc(N5CCN(C(=N)N)CC5)cc4)ncn3)cc2)CC1 [Compound 136] | 4 (≈ 8.25 µM)

same assay, conditions: Table 5

Compound | MIC C. glabrata [µg/mL]
N=C(N)N1CCN(c2ccc(-c3cc(-c4ccc(N5CCN(C(=N)N)CC5)cc4)ncn3)cc2)CC1 [Compound 136] | 4 (≈ 8.25 µM)

tested on: C. krusei (ATCC 6258); test: Yeast MIC; format: cell-based; details: Pichia kudriavzevii, ATCC6258
Experimental: as §3, §2

Compound | MIC [µg/mL]
N=C(N)N1CCN(c2ccc(-c3cc(-c4ccc(N5CCN(C(=N)N)CC5)cc4)ncn3)cc2)CC1 [Compound 136] | 32 (≈ 66 µM)
NCCCOc1cc(-c2cn(-c3cc(OCCCN)cc(OCCCN)c3)nn2)cc(-c2cn(-c3cc(OCCCN)cc(OCCCN)c3)nn2)c1 [Compound 137] | 8 (≈ 11 µM)

tested on: C. parapsilosis (ATCC 22019); test: Yeast MIC; format: cell-based; details: Lodderomyces parapsilosis, ATCC22019
Experimental: as §3, §2

Compound | MIC [µg/mL]
N=C(N)N1CCN(c2ccc(-c3cc(-c4ccc(N5CCN(C(=N)N)CC5)cc4)ncn3)cc2)CC1 [Compound 136] | 4 to 8 (≈ 8.25 to 16.5 µM)
NCCCOc1cc(-c2cn(-c3cc(OCCCN)cc(OCCCN)c3)nn2)cc(-c2cn(-c3cc(OCCCN)cc(OCCCN)c3)nn2)c1 [Compound 137] | 4 to 8 (≈ 5.48 to 11 µM)

tested on: C. tropicalis (ATCC 750); test: Yeast MIC; format: cell-based; details: Candida tropicalis, ATCC750
Experimental: as §3, §2

Compound | MIC [µg/mL]
N=C(N)N1CCN(c2ccc(-c3cc(-c4ccc(N5CCN(C(=N)N)CC5)cc4)ncn3)cc2)CC1 [Compound 136] | 4 to 8 (≈ 8.25 to 16.5 µM)
NCCCOc1cc(-c2cn(-c3cc(OCCCN)cc(OCCCN)c3)nn2)cc(-c2cn(-c3cc(OCCCN)cc(OCCCN)c3)nn2)c1 [Compound 137] | 4 (≈ 5.48 µM)

tested on: A. viscosis; test: Commensal bacteria MIC, broth microdilution; format: cell-based; details: not given
Experimental: (§4) Bacterial MICs were determined using a broth microdilution assay under standard
as §2

Compound | MIC [µg/mL]
N=C(N)N1CCN(c2ccc(-c3cc(-c4ccc(N5CCN(C(=N)N)CC5)cc4)ncn3)cc2)CC1 [Compound 136] | 4 (≈ 8.25 µM)
NCCCOc1cc(-c2cn(-c3cc(OCCCN)cc(OCCCN)c3)nn2)cc(-c2cn(-c3cc(OCCCN)cc(OCCCN)c3)nn2)c1 [Compound 137] | > 64

tested on: S. salivarius; test: Commensal bacteria MIC, broth microdilution; format: cell-based; details: Streptococcus salivarius
Experimental: as §4, §2

Compound | MIC [µg/mL]
N=C(N)N1CCN(c2ccc(-c3cc(-c4ccc(N5CCN(C(=N)N)CC5)cc4)ncn3)cc2)CC1 [Compound 136] | 16 (≈ 33 µM)
NCCCOc1cc(-c2cn(-c3cc(OCCCN)cc(OCCCN)c3)nn2)cc(-c2cn(-c3cc(OCCCN)cc(OCCCN)c3)nn2)c1 [Compound 137] | > 64
